Experimental data published in ChEMBL document CHEMBL1201862, “PubChem BioAssay data set” (2004).
Active and inactive are the calls of the source. Cut-off read from the data, not from the text of the source: actives have a measured IC50 and inactives only a lower limit.

Biological target: Envelope glycoprotein gp160 (Human immunodeficiency virus 1, UniProt Q6QLK5)
Assay: cell-free HIV fusion peptide-binding blockers – biochemical, uHTS, fluorescence dequenching, […] (AID 1986)

Chain of Envelope glycoprotein gp160 (Q6QLK5 whole entry, the tested form may be a part): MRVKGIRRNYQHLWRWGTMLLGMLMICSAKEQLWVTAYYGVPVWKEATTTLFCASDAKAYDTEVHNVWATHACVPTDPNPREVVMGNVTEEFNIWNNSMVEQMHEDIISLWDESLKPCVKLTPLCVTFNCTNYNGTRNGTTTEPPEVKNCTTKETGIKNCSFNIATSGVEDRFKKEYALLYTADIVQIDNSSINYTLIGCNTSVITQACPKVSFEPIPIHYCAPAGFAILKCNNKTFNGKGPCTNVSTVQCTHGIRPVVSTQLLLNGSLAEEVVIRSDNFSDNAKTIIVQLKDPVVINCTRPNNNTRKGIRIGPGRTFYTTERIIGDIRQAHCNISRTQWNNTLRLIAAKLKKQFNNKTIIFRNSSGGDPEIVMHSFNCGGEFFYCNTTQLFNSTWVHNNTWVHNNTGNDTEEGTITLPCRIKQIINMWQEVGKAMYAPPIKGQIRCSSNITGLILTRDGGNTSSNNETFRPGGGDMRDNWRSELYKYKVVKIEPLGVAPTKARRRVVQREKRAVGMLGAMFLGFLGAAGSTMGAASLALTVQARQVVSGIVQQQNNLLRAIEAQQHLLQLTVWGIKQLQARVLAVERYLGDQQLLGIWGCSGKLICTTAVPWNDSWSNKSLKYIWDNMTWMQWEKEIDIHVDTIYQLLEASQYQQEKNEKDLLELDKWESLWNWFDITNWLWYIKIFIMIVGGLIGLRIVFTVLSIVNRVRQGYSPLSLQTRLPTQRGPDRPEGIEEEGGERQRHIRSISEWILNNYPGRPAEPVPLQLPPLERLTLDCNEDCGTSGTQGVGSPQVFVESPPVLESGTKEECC

O=C(O)COc1ccc(/C=C/C(=O)c2ccc(C3CCCCC3)cc2)cc1
IC50: 17.7 µM (active)

O=C(O)CSc1ncnc2c1sc1nc(-c3ccccc3)c3c(c12)CCC3
IC50: 28 µM (active)

COc1ccc(/N=C2\S/C(=C\c3ccc(OC(C)C(=O)O)c(OC)c3)C(=O)N2CCc2c[nH]c3ccccc23)cc1 (stereo not given)
IC50: 18.9 µM (active)

CS(=O)(=O)C1=NSC2=NC(=O)/C(=C\c3ccc(OS(=O)(=O)c4ccccc4)cc3)C(=N)N21
IC50: 18.2 µM (active)

COc1cc(/C=C2/SC(=S)N(CC(=O)O)C2=O)ccc1OCC(=O)Nc1ccc(C)c(C)c1
IC50: 17.9 µM (active)
